# Patent US20240208969A1, “SUBSTITUTED FUSED BICYCLIC COMPOUNDS AS PARP INHIBITORS AND THE USE THEREOF” (IMPACT THERAPEUTICS (SHANGHAI), INC., priority 2021, published 2024)
# What was measured:
# PARP1 = PARP1 (Homo sapiens, UniProt P09874); assay: PARP1 chemiluminescent assay; type: biochemical; conditions: recombinant PARP1 enzyme activity, chemiluminescence
# Description: (§1) Mix the solution of recombinant poly ADP ribotransferase 1 and 2 (PARP1 and PARP2) (40 ng enzyme/well) and the compounds to be tested, respectively. And then added to a 96-well plate coated with […] mixture, incubated at room temperature for 1 h. Then add 50 μL 0.3 ng/mL Streptavidin-HRP to each well. The plates were incubated for 30 minutes at room temperature. Finally, the plates were treated with streptavidin-HRP followed by addition of the ELISA ECL substrate to produce chemiluminescence that can then be measured using a chemiluminescence reader. The inhibition rate of the compound to PARP1/2 enzyme activity was calculated according to the following formula. [formula] IC50 value is obtained by fitting the s-shaped dose response curve equation by using XL Fit software. The curve equation is Y=100/(1+10^(log C−log IC50)), C is the compound concentration. Table 1 summarizes the inhibitory effects of compounds on PARP1 and PARP2 enzyme activity (IC50), wherein +++++ indicates IC50≤1 nM; ++++ indicates 1<IC50≤10 nM; +++ indicates 10 nM<IC50≤100 nM: ++ indicates 100 nM<IC50≤1 μM; + indicates IC50>1 μM.
# PARP2 = PARP2 (Homo sapiens, UniProt Q9UGN5); assay: PARP2 chemiluminescent assay; type: biochemical; conditions: recombinant PARP2 enzyme activity, chemiluminescence
# PARP2, sequence (Q9UGN5 whole entry, species assumed): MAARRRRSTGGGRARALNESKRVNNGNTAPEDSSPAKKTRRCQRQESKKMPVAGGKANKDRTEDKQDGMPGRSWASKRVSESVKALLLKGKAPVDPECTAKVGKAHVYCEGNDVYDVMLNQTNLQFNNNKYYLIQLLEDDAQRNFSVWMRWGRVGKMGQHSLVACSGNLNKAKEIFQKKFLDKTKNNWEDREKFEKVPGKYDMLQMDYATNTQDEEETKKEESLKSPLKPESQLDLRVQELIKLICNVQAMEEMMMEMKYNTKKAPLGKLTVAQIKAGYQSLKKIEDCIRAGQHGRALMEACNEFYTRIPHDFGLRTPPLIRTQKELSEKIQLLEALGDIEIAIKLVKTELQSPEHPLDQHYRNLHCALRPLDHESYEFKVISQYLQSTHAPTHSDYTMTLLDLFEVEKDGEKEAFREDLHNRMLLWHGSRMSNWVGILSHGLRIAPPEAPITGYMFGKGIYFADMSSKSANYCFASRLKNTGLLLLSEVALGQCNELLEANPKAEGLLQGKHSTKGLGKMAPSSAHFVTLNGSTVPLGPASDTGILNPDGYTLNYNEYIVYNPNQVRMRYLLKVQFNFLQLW
# Description: as §1
# MDA-MB-436 cells = assay: Inhibition of proliferation of human breast cancer MDA-MB-436 cell line (CCK-8, 7 days); type: cell-based; conditions: proliferation of MDA-MB-436, 7 days
# Method in brief: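 Cells seeded at 3000/well were treated next day with 8 serial doses (DMSO control) for 7 days at 37° C., 5% CO2, with compound medium changed on day four. CCK-8 was added for 4 hours and OD read as 450 nm minus 650 nm. IC50 came from a sigmoidal fit of survival relative to DMSO.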
# PARP1, sequence (P09874 whole entry): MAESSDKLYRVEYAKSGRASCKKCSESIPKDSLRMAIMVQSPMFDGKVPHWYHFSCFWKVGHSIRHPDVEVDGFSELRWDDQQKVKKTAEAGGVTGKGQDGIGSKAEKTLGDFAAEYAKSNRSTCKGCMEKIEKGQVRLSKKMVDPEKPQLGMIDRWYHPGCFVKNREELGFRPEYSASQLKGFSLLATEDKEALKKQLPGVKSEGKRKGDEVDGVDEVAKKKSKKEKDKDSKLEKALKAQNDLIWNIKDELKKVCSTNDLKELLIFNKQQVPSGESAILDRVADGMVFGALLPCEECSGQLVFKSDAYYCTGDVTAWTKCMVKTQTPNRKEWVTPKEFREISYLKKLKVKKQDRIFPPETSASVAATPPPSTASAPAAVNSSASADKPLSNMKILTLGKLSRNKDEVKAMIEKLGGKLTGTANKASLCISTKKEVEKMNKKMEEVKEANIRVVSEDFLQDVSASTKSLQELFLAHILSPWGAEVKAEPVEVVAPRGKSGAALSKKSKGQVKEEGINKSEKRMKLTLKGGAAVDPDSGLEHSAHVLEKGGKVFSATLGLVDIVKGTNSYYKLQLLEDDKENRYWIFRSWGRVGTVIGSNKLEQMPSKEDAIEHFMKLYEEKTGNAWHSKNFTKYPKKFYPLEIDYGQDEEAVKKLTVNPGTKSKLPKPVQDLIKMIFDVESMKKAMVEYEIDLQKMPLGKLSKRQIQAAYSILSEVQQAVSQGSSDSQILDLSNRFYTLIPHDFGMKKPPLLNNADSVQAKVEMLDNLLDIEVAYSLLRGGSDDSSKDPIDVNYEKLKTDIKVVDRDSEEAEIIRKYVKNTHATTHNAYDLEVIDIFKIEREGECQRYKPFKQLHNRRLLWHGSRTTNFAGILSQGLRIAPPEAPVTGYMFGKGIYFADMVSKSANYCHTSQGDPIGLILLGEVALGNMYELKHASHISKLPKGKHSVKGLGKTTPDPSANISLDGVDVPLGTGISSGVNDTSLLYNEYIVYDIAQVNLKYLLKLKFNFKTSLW
IC50 (PARP1),IC50 (PARP2),"IC50 (MDA-MB-436 cells; Homo sapiens, 168 h)",IC50 (MDA-MB-436 cells),SMILES
10 to 100 nM,> 1000 nM,10 to 100 nM,,"CCn1c(=O)[nH]c2c(F)c(CN3CCN(c4ccc(C(=O)NC)nc4F)CC3)ccc2c1=O [Example 24, 5-(4-((3-ethyl-8-fluoro-2,4-dioxo-1,2,3,4-tetrahydroquinazolin-7-yl)methyl)piperazin-1-yl)-6-fluoro-N-methylpicolinamide]"
1 to 10 nM,> 1000 nM,10 to 100 nM,,"CCNC(=O)c1ccc(N2CCN(Cc3ccc4c(=O)n(CC)c(=O)[nH]c4c3)CC2)c(C)n1 [Example 84, N-ethyl-5-(4-((3-ethyl-2,4-dioxo-1,2,3,4-tetrahydroquinazolin-7-yl)methyl)piperazin-1-yl)-6-methylpicolinamide]"
10 to 100 nM,> 1000 nM,> 1000 nM,,"CNC(=O)c1ccc(N2CCN(Cc3cnc4c(=O)n(C(C)C)c(=O)[nH]c4c3)CC2)cn1 [Example 3, 5-(4-((3-isopropyl-2,4-dioxo-1,2,3,4-tetrahydropyrido[3,2-d]pyrimidin-7-yl)methyl)piperazin-1-yl)-N-methylpicolinamide]"
1 to 10 nM,100 to 1000 nM,1 to 10 nM,,"CCn1c(=O)[nH]c2cc(CN3CCN(c4ccc(C(=O)NC)nc4Cl)CC3)cc(Cl)c2c1=O [Example 63, 6-chloro-5-(4-((5-chloro-3-ethyl-2,4-dioxo-1,2,3,4-tetrahydroquinazolin-7-yl)methyl)piperazin-1-yl)-N-methylpicolinamide]"
≤ 1 nM,> 1000 nM,> 1000 nM,,CCCn1c(=O)[nH]c2cc(CN3CCN(c4ccc(C(=O)NC)nc4)CC3)cnc2c1=O [Example 7]
1 to 10 nM,100 to 1000 nM,10 to 100 nM,,"CCn1c(=O)[nH]c2cc(CN3CCN(c4ccc(C(N)=O)nc4F)CC3)ccc2c1=O [Example 32, 5-(4-((3-ethyl-2,4-dioxo-1,2,3,4-tetrahydroquinazolin-7-yl)methyl)piperazin-1-yl)-6-fluoropicolinamide]"
> 1000 nM,> 1000 nM,> 1000 nM,,"CCn1c(=O)[nH]c2cc(CN3CCN(c4ccc(C(=O)NC)nc4)CC3)ccc21 [Example 16, 5-(4-((1-ethyl-2-oxo-2,3-dihydro-1H-benzo[d]imidazol-5-yl)methyl)piperazin-1-yl)-N-methylpicolinamide]"
1 to 10 nM,> 1000 nM,> 1000 nM,,"CCn1c(=O)[nH]c2cc(-c3cccc(C(=O)Nc4ccc(C(=O)NC)nc4)c3)ccc2c1=O [Example 41, 5-(3-(3-ethyl-2,4-dioxo-1,2,3,4-tetrahydroquinazolin-7-yl)benzamido)-N-methylpicolinamide]"
1 to 10 nM,100 to 1000 nM,1 to 10 nM,,"CCn1c(=O)[nH]c2cc(CN3CCN(c4ccc(C(=O)NC5CC5)nc4F)CC3)ccc2c1=O [Example 135, N-cyclopropyl-5-(4-((3-ethyl-2,4-dioxo-1,2,3,4-tetrahydroquinazolin-7-yl)methyl)piperazin-1-yl)-6-fluoropicolinamide]"
1 to 10 nM,> 1000 nM,1 to 10 nM,,"CCn1c(=O)[nH]c2cc(CN3CCN(c4ccc(C(=O)NC)nc4C)CC3)ccc2c1=O [Example 22, 5-(4-((3-ethyl-2,4-dioxo-1,2,3,4-tetrahydroquinazolin-7-yl)methyl)piperazin-1-yl)-N,6-dimethylpicolinamide]"
10 to 100 nM,> 1000 nM,> 1000 nM,,"CCCn1c(=O)[nH]c2cc(-c3cccc(C(=O)Nc4ccc(C(=O)NC)nc4)c3)ccc2c1=O [Example 47, 5-(3-(3-propyl-2,4-dioxo-1,2,3,4-tetrahydroquinazolin-7-yl)benzamido)-N-methylpicolinamide]"
1 to 10 nM,> 1000 nM,10 to 100 nM,,"CNC(=O)c1ccc(N2CCN(Cc3ccc4c(=O)n(C)c(=O)[nH]c4c3)CC2)c(F)n1 [Example 17, 5-(4-((3-methyl-2,4-dioxo-1,2,3,4-tetrahydroquinazolin-7-yl)methyl)piperazin-1-yl)-6-fluoro-N-methylpicolinamide]"
1 to 10 nM,100 to 1000 nM,10 to 100 nM,,"CCn1c(=O)[nH]c2cc(CN3CCN(c4ccc(C(=O)NC)nc4Cl)CC3)cc(F)c2c1=O [Example 62, 6-chloro-5-(4-((3-ethyl-5-fluoro-2,4-dioxo-1,2,3,4-tetrahydroquinazolin-7-yl)methyl)piperazin-1-yl)-N-methylpicolinamide]"
1 to 10 nM,> 1000 nM,10 to 100 nM,,"CCN1Cc2ccc(CN3CCN(c4ccc(C(=O)NC)nc4F)CC3)cc2NC1=O [Example 114, 5-(4-((3-ethyl-2-oxo-1,2,3,4-tetrahydroquinazolin-7-yl)methyl)piperazin-1-yl)-6-fluoro-N-methylpicolinamide]"
1 to 10 nM,100 to 1000 nM,> 1000 nM,,"CCn1c(=O)[nH]c2cc(CN3CCN(c4ccc(C(=O)NC)cn4)CC3)ccc2c1=O [Example 28, 6-(4-((3-ethyl-2,4-dioxo-1,2,3,4-tetrahydroquinazolin-7-yl)methyl)piperazin-1-yl)-N-methylnicotinamide]"
≤ 1 nM,> 1000 nM,100 to 1000 nM,,"CCc1nc(C(=O)NC)ccc1N1CCN(Cc2ccc3c(=O)n(CC)c(=O)[nH]c3c2)CC1 [Example 31, 5-(4-((3-ethyl-2,4-dioxo-1,2,3,4-tetrahydroquinazolin-7-yl)methyl)piperazin-1-yl)-6-ethyl-N-methylpicolinamide]"
1 to 10 nM,> 1000 nM,1 to 10 nM,,"CCNC(=O)c1ccc(N2CCN(Cc3ccc4c(c3)NC(=O)N(CC)C4)CC2)c(C)n1 [Example 117, 5-(4-((3-ethyl-2-oxo-1,2,3,4-tetrahydroquinazolin-7-yl)methyl)piperazin-1-yl)-6-methyl-N-ethylpicolinamide]"
1 to 10 nM,> 1000 nM,10 to 100 nM,,"CCn1c(=O)[nH]c2cc(CN3CCN(c4ccc(C(=O)NC5CC5)nc4C)CC3)ccc2c1=O [Example 78, N-cyclopropyl-5-(4-((3-ethyl-2,4-dioxo-1,2,3,4-tetrahydroquinazolin-7-yl)methyl)piperazin-1-yl)-6-methylpicolinamide]"
1 to 10 nM,100 to 1000 nM,1 to 10 nM,,"CCNC(=O)c1ccc(N2CCN(Cc3ccc4c(=O)n(CC)c(=O)[nH]c4c3)CC2)c(F)n1 [Example 33, 5-(4-((3-ethyl-2,4-dioxo-1,2,3,4-tetrahydroquinazolin-7-yl)methyl)piperazin-1-yl)-6-fluoro-N-ethylpicolinamide]"
1 to 10 nM,> 1000 nM,1 to 10 nM,,CCN1Cc2ccc(CN3CCN(c4ccc(C(=O)NC)nc4Cl)CC3)cc2NC1=O [Example 115]
1 to 10 nM,1 to 10 nM,,1 to 10 nM,"O=C(c1cc(Cn2c(=O)[nH]c(=O)c3c(F)cccc32)ccc1F)N1CCN(c2ncccn2)CC1 [Senaparib, reference compound]"
10 to 100 nM,> 1000 nM,100 to 1000 nM,,"CCn1c(=O)[nH]c2cc(CN3CCN(c4ccc(C(=O)NC)nc4C)CC3)c(F)cc2c1=O [Example 67, 5-(4-((3-ethyl-6-fluoro-2,4-dioxo-1,2,3,4-tetrahydroquinazolin-7-yl)methyl)piperazin-1-yl)-N,6-dimethylpicolinamide]"
1 to 10 nM,100 to 1000 nM,10 to 100 nM,,"CCn1c(=O)[nH]c2cc(CN3CCN(c4ccc(C(=O)NC)nc4F)CC3)c(F)cc2c1=O [Example 14, 5-(4-((3-ethyl-6-fluoro-2,4-dioxo-1,2,3,4-tetrahydroquinazolin-7-yl)methyl)piperazin-1-yl)-6-fluoro-N-methylpicolinamide]"
1 to 10 nM,100 to 1000 nM,1 to 10 nM,,"CCn1c(=O)[nH]c2cc(CN3CCN(c4ccc(C(=O)NC)nc4F)CC3)ccc2c1=O [Example 13, 5-(4-((3-ethyl-2,4-dioxo-1,2,3,4-tetrahydroquinazolin-7-yl)methyl)piperazin-1-yl)-6-fluoro-N-methylpicolinamide]"
1 to 10 nM,100 to 1000 nM,10 to 100 nM,,"CCNC(=O)c1ccc(N2CCN(Cc3ccc4c(=O)n(CC)c(=O)[nH]c4c3)CC2)c(Cl)n1 [Example 83, 6-chloro-N-ethyl-5-(4-((3-ethyl-2,4-dioxo-1,2,3,4-tetrahydroquinazolin-7-yl)methyl)piperazin-1-yl)picolinamide]"
1 to 10 nM,100 to 1000 nM,> 1000 nM,,CCn1c(=O)[nH]c2cc(CN3CCN(c4cnc(C(=O)NC)nc4)CC3)ccc2c1=O [Example 27]
